Test results taken from patent US20070207952A1, “Long Acting Biologically Active Conjugates” (priority 2003, published 2007).
Where a SMILES comes first, the peptide text is derived from it. Where no end group is shown, it is not given here. [ ]: non-standard residue; d: D form. The star is where a group is joined. Sta = CC(C)C[C@H](N)[C@@H](O)CC(=O)O; Nle = CCCC[C@H](N)C(=O)O; Cbz = O=C(OCc1ccccc1)*; Boc = CC(C)(C)OC(=O)*

Columns and labels:
HIV-1 IIIB = assay: Antiviral cytotoxicity (MTT) assay with MT4 cells, HIV-1 IIIB; format: cell-based; conditions: MT-4 cells, 5 days, average of 2 or 3 experiments
HIV NL4-3 = assay: Antiviral cytotoxicity (MTT) assay with MT4 cells, HIV NL4-3; format: cell-based, HIV-1; conditions: MT-4 cells, 5 days, average of 2 or 3 experiments
Procedure: Antiviral potency of the peptides was analyzed against HIV-1 HXB2 or NLA-3 strains using a cytotoxicity assay with MT4 cells as previously described (ref 1-3) with minor modifications. MT-4 cells (1.5×10^4/ml) were exposed to 200 50% tissue culture infective doses (TCID50) of viruses in the presence of various concentrations of test compound in 96 well microtiter plates and incubated at 37° C. for 5 days. Cytotoxicity of HIV was measured by the addition of 3-(4,5-dimethylthiazol-2-yl)-2,5-diphenytetrazolium bromide (MMI) solution to each well to a final concentration of 0.75 mg/ml, and incubation for 1 hour a 37° C. After incubation, cells were dissolved in isopropanoyrriton-X 100/HCl (1000:50:25) solution. Absorbance was monitored in a microplate reader (Spectramax, Molecular Devices) at 540 rm and 690 nm. MT-4 cells were obtained from the AIDS Research and Reference Reagent Program (ARRRP, Division of AIDS, NIAID, NIH: MT-4 from Dr. D. Richman). Cells were propagated in RPMI 1640 growth medium supplemented with 10% fetal bovine serum, 50U of penicillin and 50 μg of streptomycin per ml ([Ivitrogen, Carlsbad Calif.).

Human plasma renin = target: T1, Human plasma renin (Homo sapiens, UniProt P00797); conditions: cited from earlier work; for IC50: literature values
T1 construct: plasma renin
T1 sequence (P00797 67-406): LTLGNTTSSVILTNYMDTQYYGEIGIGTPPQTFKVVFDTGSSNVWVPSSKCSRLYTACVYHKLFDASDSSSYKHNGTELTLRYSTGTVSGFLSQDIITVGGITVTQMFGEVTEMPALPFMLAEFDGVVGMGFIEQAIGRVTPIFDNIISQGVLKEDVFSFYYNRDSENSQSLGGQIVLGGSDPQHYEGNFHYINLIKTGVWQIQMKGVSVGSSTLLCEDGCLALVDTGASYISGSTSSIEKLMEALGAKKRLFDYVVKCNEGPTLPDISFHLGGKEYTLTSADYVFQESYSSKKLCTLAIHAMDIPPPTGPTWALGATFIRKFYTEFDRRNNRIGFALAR

Row | Molecule | IC50 (Human plasma renin) | further results
1 | CCCC[C@H](NC(=O)[C@H](Cc1c[nH]c2ccccc12)NC(C)=O)C(=O)N[C@@H](CCC(=O)O)C(=O)N[C@@H](Cc1c[nH]c2ccccc12)C(=O)N[C@@H](CC(=O)O)C(=O)N[C@@H](CCCNC(=N)N)C(=O)N[C@@H](CCCCN)C(=O)N[C@H](C(=O)N[C@@H](CCC(=O)O)C(=O)N[C@@H](CCC(=O)O)C(=O)N[C@@H](Cc1ccc(O)cc1)C(=O)N[C@H](C(=O)N[C@@H](CCCCN)C(=O)N[C@@H](CCCCN)C(=O)N[C@H](C(=O)N[C@@H](CCC(=O)O)C(=O)N[C@@H](CCC(=O)O)C(=O)N[C@@H](CC(C)C)C(=O)N[C@H](C(=O)N[C@@H](CCCCN)C(=O)N[C@@H](CCCCN)C(=O)N[C@@H](CO)C(=O)N[C@@H](CCC(N)=O)C(=O)N[C@@H](CCC(=O)O)C(=O)N[C@@H](CCC(N)=O)C(=O)N[C@@H](CCC(N)=O)C(=O)N[C@@H](CCC(=O)O)C(=O)N[C@@H](CCCCN)C(=O)N[C@@H](CC(N)=O)C(=O)N[C@@H](CCC(=O)O)C(=O)N[C@@H](CCCCN)C(=O)N[C@@H](CCC(=O)O)C(=O)N[C@@H](CC(C)C)C(=O)N[C@@H](CCCCN)C(N)=O)[C@@H](C)CC)[C@@H](C)CC)[C@@H](C)O)[C@@H](C)CC [peptide 9, Ac-WXEWDRKIEEYTKKIEELIKKSQEQQEKNEKELK-NH2] (Ac-W[Nle]EWDRKIEEYTKKIEELIKKSQEQQEKNEKELK-NH2) | – | IC50 (HIV-1 IIIB): 1.7 nM; IC50 (HIV NL4-3): 0.9 nM
2 | Iva-His-Pro-Phe-His-Sta---Ala-Sta | – | Ki (Human plasma renin; cell marked (Ki)): 1.9 nM
3 | Cbz-RRPFH[Sta]IHK(Boc)-OMe | 1 nM | –
4 | CCCC[C@H](NC(=O)[C@H](Cc1c[nH]c2ccccc12)NC(C)=O)C(=O)N[C@@H](CCC(=O)O)C(=O)N[C@@H](Cc1c[nH]c2ccccc12)C(=O)N[C@@H](CC(=O)O)C(=O)N[C@@H](CCCNC(=N)N)C(=O)N[C@@H](CCC(=O)O)C(=O)N[C@@H](Cc1c[nH]c2ccccc12)C(=O)N[C@@H](CC(N)=O)C(=O)N[C@@H](CC(N)=O)C(=O)N[C@@H](Cc1ccc(O)cc1)C(=O)N[C@H](C(=O)N[C@@H](CO)C(=O)N[C@@H](CC(C)C)C(=O)N[C@H](C(=O)N[C@@H](Cc1c[nH]cn1)C(=O)N[C@@H](CO)C(=O)N[C@@H](CC(C)C)C(=O)N[C@H](C(=O)N[C@@H](CCC(=O)O)C(=O)N[C@@H](CCC(=O)O)C(=O)N[C@@H](CO)C(=O)N[C@@H](CCC(N)=O)C(=O)N[C@@H](CC(N)=O)C(=O)N[C@@H](CCC(N)=O)C(=O)N[C@@H](CCC(N)=O)C(=O)N[C@@H](CCC(=O)O)C(=O)N[C@@H](CCCCN)C(=O)N[C@@H](CC(N)=O)C(=O)N[C@@H](CCC(=O)O)C(=O)N[C@@H](CCC(N)=O)C(=O)N[C@@H](CCC(=O)O)C(=O)N[C@@H](CC(C)C)C(=O)N[C@@H](CC(C)C)C(N)=O)[C@@H](C)CC)[C@@H](C)CC)[C@@H](C)O [peptide 3, Ac-WXEWDREWNNYTSLIHSLIEESQNQQEKNEQELL-NH2] (Ac-W[Nle]EWDREWNNYTSLIHSLIEESQNQQEKNEQELL-NH2) | – | IC50 (HIV-1 IIIB): 1.7 nM; IC50 (HIV NL4-3): 7.6 nM
5 | Boc-Pro-Phe-His-Sta---Ile-AMP | 4.1 nM | –
6 | Ac-HPFV[Sta]LF-NH2 | 32 nM | –
7 | Ac-His-Pro-Phe-His-ACHPA---Leu-Phe-NH2 | 0.5 nM | –
8 | Boc-Phe-His-Sta---Leu-NHCH2Ph | 26 nM | –
9 | PHPFH[Sta]IH[dK] | 26 nM | –
10 | Boc-Phe-His-ACHPA---Leu-AMB | 1 nM | –
11 | CCCC[C@H](NC(=O)[C@H](Cc1c[nH]c2ccccc12)NC(C)=O)C(=O)N[C@@H](CCC(=O)O)C(=O)N[C@@H](Cc1c[nH]c2ccccc12)C(=O)N[C@@H](CC(=O)O)C(=O)N[C@@H](CCCNC(=N)N)C(=O)N[C@@H](CCCCN)C(=O)N[C@H](C(=O)N[C@@H](CCC(=O)O)C(=O)N[C@@H](CCC(=O)O)C(=O)N[C@@H](Cc1ccc(O)cc1)C(=O)N[C@H](C(=O)N[C@@H](CCCCN)C(=O)N[C@@H](CCCCN)C(=O)N[C@H](C(=O)N[C@@H](CCCCN)C(=O)N[C@@H](CCCCN)C(=O)N[C@@H](CC(C)C)C(=O)N[C@H](C(=O)N[C@@H](CCC(=O)O)C(=O)N[C@@H](CCC(=O)O)C(=O)N[C@@H](CO)C(=O)N[C@@H](CCC(N)=O)C(=O)N[C@@H](CCC(=O)O)C(=O)N[C@@H](CC(C)C)C(=O)N[C@@H](CCC(N)=O)C(=O)N[C@@H](CCC(=O)O)C(=O)N[C@@H](CCCCN)C(=O)N[C@@H](CC(N)=O)C(=O)N[C@@H](CCC(=O)O)C(=O)N[C@@H](CCCCN)C(=O)N[C@@H](CCC(=O)O)C(=O)N[C@@H](CC(C)C)C(=O)N[C@@H](CCCCN)C(N)=O)[C@@H](C)CC)[C@@H](C)CC)[C@@H](C)O)[C@@H](C)CC [peptide 7, Ac-WXEWDRKIEEYTKKIKKLIEESQELQEKNEKELK-NH2] (Ac-W[Nle]EWDRKIEEYTKKIKKLIEESQELQEKNEKELK-NH2) | – | IC50 (HIV-1 IIIB): 2.4 nM; IC50 (HIV NL4-3): 1.1 nM
12 | Boc-Phe-His-Sta---Leu-AMB | 9 nM | –
13 | Ac-WPFH[Sta]I-NH2 | 16 nM | –
14 | CCCC[C@H](NC(=O)[C@H](Cc1c[nH]c2ccccc12)NC(C)=O)C(=O)N[C@@H](CCC(=O)O)C(=O)N[C@@H](Cc1c[nH]c2ccccc12)C(=O)N[C@@H](CC(=O)O)C(=O)N[C@@H](CCCNC(=N)N)C(=O)N[C@@H](CCCCN)C(=O)N[C@H](C(=O)N[C@@H](CCC(=O)O)C(=O)N[C@@H](CCC(=O)O)C(=O)N[C@@H](Cc1ccc(O)cc1)C(=O)N[C@H](C(=O)N[C@@H](CCCCN)C(=O)N[C@@H](CCCCN)C(=O)N[C@H](C(=O)N[C@@H](CCCCN)C(=O)N[C@@H](CCCCN)C(=O)N[C@@H](CC(C)C)C(=O)N[C@H](C(=O)N[C@@H](CCC(=O)O)C(=O)N[C@@H](CCC(=O)O)C(=O)N[C@@H](CO)C(=O)N[C@@H](CCC(N)=O)C(=O)N[C@@H](CCC(=O)O)C(=O)N[C@@H](CCC(N)=O)C(=O)N[C@@H](CCC(N)=O)C(=O)N[C@@H](CCC(=O)O)C(=O)N[C@@H](CCCCN)C(=O)N[C@@H](CC(N)=O)C(=O)N[C@@H](CCC(=O)O)C(=O)N[C@@H](CCCCN)C(=O)N[C@@H](CCC(=O)O)C(=O)N[C@@H](CC(C)C)C(=O)N[C@@H](CCCCN)C(N)=O)[C@@H](C)CC)[C@@H](C)CC)[C@@H](C)O)[C@@H](C)CC [peptide 6, Ac-WXEWDRKIEEYTKKIKKLIEESQEQQEKNEKELK-NH2] (Ac-W[Nle]EWDRKIEEYTKKIKKLIEESQEQQEKNEKELK-NH2) | – | IC50 (HIV-1 IIIB): 2.4 nM; IC50 (HIV NL4-3): 1.2 nM
15 | PEC-Phe-His-ACHPA-ILeNHC(CH2OH)2CH3 | < 0.01 nM | –
16 | Pro-His-Pro-Phe-His-Leu(CH2NH)Val-Ile-His-Lys | 10 nM | –
17 | Boc-Phe-His-Sta---Ile-AMP | 6 nM | –
18 | PHPFH[Sta]IF-NH2 | 3 nM | –
19 | Iva-Phe-Nle-Sta-Ala-Sta | 28 nM | –
20 | Boc-FH[Sta]A[Sta]-OMe | 27 nM | –
21 | Ac-(HCO-Trp)-Pro-Phe-His-Sta---Ile-NH2 | 0.1 nM | –
22 | Boc-Phe-His-Cha-(CH2NH)Val-NH-2(S)-Me(Bu) | 86 nM | –
23 | Boc-His-Pro-Phe-His-Leu(CH(OH)CH2)Val-Ile-His-OH | 0.7 nM | –
